Measured values reported in patent publication US8034787B2, “Enzyme-cleavable prodrug compounds” (Medarex, Inc., priority 1998, dated 2011).

Columns and labels:
[1] = Aggregation, Centricon ultrafiltration; type: physicochemical; details: 17.4 μMol/ml in distilled water, 2 hr at 1500 g; listed as Dox
HL-60 cells = assay: 3H-thymidine incorporation proliferation assay; type: cell-based; details: Homo sapiens, HL-60, 24 hours
Protocol: Promyelocytic leukemia cells, HL-60, were cultured in RPMI media containing 10% heat inactivated fetal calf serum (FCS). On the day of the study, the cells were collected, washed and resuspended at a concentration of 0.5×10^6 cells/ml in RPMI containing 10% FCS. 100 μl/well of cell suspension was added to 96 well plates. […] Finally, 10 μl of a 100 μCi/ml ^3H-thymidine was added per well and the plates were incubated for 24 hours. The plates were harvested using a 96 well Harvester (Packard Instruments) and counted on a Packard Top Count counter. Four parameter logistic curves were fitted to the ^3H-thymidine incorporation as a function of drug molarity using Prism software to determine IC50 values.

MX-1 tumors = type: in vivo, mice
Protocol: MX-1 tumors which are moderately doxorubicin-sensitive, human breast carcinoma xenografts, were implanted subcutaneously (s.c.) and mice were weighed and tumors were measured (by caliper) at least once a week prior to start of dosing (Day 0), then twice a week during the study. Immediately before the start of dosing (Study Day −2 to Day 0), mice were randomized to various groups based on the weight of the tumors. Mice were euthanized after the tumors reached a cutoff weight of 1.5 g (cancer endpoint). Studies were terminated at Day 60.

LS174T tumor = system: LS174T tumor
Description: Statistically significant from vehicle control group: *: p<0.05; **: p<0.01 (unpaired t-test).

[2] = 3 mg/kg, 5 doses, one every 7 days

COc1cccc2c1C(=O)c1c(O)c3c(c(O)c1C2=O)C[C@@](O)(C(=O)CO)C[C@@H]3O[C@H]1C[C@H](N)[C@H](O)[C@H](C)O1 [Doxorubicin]
3000 MWCO Filt. [1]: 81%
IC50 (HL-60 cells): 0.075 µM
MDS (MX-1 tumors; [2]): 27.3 ± 2.6 days
Survival: MDS Extension over controls (MX-1 tumors; [2]): 33 ± 13%
TGD (MX-1 tumors; [2]): 6.8 ± 2.7 days
Tumor Weight (mg, Day 18) (MX-1 tumors; [2]): 906 ± 150 mg
TGI (MX-1 tumors; 3 mg/kg, 5 doses, one every 7 days, over control at Day 18): 22 ± 16%
tolerability of dose regimens (MX-1 tumors; mouse, in vivo): very well tolerated
MDS (LS174T tumor; [2]): 25.8 ± 2.5 days
MDS Extension over controls (LS174T tumor; [2]): 3 ± 13%
Mean Tumor Weight (mg, Day 19) (LS174T tumor; [2]): 1035 ± 180 mg
TGD (LS174T tumor; [2]): 0.8 ± 3.1 days
TGI (LS174T tumor; [2]): 0%
efficacy in inhibiting LS-174T tumor and extending survival (LS174T tumor; doxorubicin 3 mg/kg): ineffective
tolerability of dose regimens (LS174T tumor; mouse, in vivo): very well tolerated
